According to patent publication US20230080054A1 (ILDONG PHARMACEUTICAL CO., LTD., priority 2021, published 2023):

Columns and labels:
citrated human blood = assay: NATEM (ROTEM thromboelastometry, blood clot formation); conditions: 100 μM, 2% v/v DMSO, 15 min preincubation
Protocol: (§1) 1. Materials and Instruments
Star-TEM reagent (TEM International GmbH, cat. #000503-01), Dimethyl sulfoxide (Sigma-Aldrich, cat. #D2438), Cleancle normal saline (JW Pharm), and ROTEM® delta system (TEM International GmbH).
Human blood research was experimented after approval from the Yonsei University Institutional Review Board (IRB) in accordance with the Life Ethics and Safety Act.
Blood samples for NATEM were kept at room temperature, and all NATEM analyses were performed at 37° C. NATEM was carried out using 300 μL of citrated human blood preincubating with test compounds (100 μM, 2% v/v DMSO) for 15 minutes in cuvette and […] with Star-TEM reagent according to the manufacturer's manual (ROTEM; Tem International GmbH, Munich, Germany). After addition of the star-TEM reagent, cuvettes were measured by ROTEM® delta system. Blood clot formation was evaluated.
The obtained parameters were time to clot initiation (Clotting Time, CT), time to clot formation, α angle for clot growth kinetics (initial rate of fibrin polymerization), amplitude (firmness) at 10 minutes, maximum clot firmness, and maximum lysis.

human ANO6 = target: T1, human ANO6 (Homo sapiens, UniProt Q4KMQ2); assay: LACT C2 assay (phosphatidylserine scramblase function assay); format: cell-based; conditions: FRT cells expressing human ANO6, 10 μM ionomycin; for inhibition at 0.1 µM: test compound 100 nM, read-out: Inhibition Level 100 nM; for inhibition at 1 µM: test compound 1 μM, read-out: Inhibition Level 1 μM
T1 construct: expressed in transfected cells
T1 sequence (Q4KMQ2 1-931 isoform Q4KMQ2-2): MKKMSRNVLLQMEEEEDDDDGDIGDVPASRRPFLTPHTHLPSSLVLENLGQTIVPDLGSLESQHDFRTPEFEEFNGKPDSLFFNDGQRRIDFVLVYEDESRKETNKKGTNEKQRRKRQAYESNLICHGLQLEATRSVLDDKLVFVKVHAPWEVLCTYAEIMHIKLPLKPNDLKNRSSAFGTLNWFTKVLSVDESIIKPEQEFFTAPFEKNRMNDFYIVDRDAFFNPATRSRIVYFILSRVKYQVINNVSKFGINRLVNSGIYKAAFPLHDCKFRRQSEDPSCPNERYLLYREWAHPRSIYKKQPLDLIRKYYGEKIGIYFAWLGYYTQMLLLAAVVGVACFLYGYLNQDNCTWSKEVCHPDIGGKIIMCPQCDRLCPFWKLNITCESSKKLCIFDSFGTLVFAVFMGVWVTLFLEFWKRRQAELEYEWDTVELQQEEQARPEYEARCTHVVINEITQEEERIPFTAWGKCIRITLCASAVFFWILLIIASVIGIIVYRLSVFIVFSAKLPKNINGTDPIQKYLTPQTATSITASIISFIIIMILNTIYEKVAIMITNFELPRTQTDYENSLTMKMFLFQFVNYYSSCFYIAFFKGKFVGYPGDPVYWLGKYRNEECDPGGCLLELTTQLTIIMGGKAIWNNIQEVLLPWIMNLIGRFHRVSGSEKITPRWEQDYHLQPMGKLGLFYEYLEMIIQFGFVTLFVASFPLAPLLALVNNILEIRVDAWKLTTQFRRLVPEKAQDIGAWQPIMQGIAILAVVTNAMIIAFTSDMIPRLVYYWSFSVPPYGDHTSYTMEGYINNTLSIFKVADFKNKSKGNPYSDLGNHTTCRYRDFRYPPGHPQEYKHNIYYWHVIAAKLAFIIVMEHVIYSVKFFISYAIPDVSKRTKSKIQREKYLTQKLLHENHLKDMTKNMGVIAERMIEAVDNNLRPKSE
Method in brief: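 Inhibition was normalised between ionomycin-only (0%) and untreated (100%) wells, with triplicates averaged. Readout was background-corrected Lact-C2-GFP (500 nM) fluorescence from imaged cells. The cells were FRT cells stably expressing human ANO6, given compound at 1% DMSO for 10 min before a 10 min 10 μM ionomycin challenge.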

[1] = test system: platelet-rich plasma (PRP); assay: Recalcification time of rat platelet-rich plasma; conditions: 30 μM, vs 2% DMSO control
Protocol: Example 5: Recalcification Time
as §1
Isoflurane (Hana Pharm, cat. #9008), Isotonic Sodium Chloride Injection (Daihan Pharm, cat. #331), Citrate-dextrose solution (Sigma-Aldrich, cat. #C3821), Calcium chloride solution (Sigma-Aldrich, cat. #21115), 22G Syringe 10 mL (Koreavaccine), Dimethyl sulfoxide (Sigma-Aldrich, cat. #D5879), Apixaban (AK scientific, cat. #X1060), 96 Well Cell Culture Plates (SPL Life Sciences, cat. #30096), Synergy H4 Hybrid Microplate Reader (BioTek), Combi R515 Multi-purpose Centrifuge (Hanil Scientific), BS-06 Shaking & Heating Baths (JEIO TECH), and PST-60HL-4 Plate Shaker-Thermostat (Bio-San)
Seven-week-old male SD Rat (ORIENT BIO.) were maintained under controlled conditions of temperature (22±2° C.) and 12-h light/12-h dark cycle. Rats were housed in the pathogen-free facility of the Laboratory Animal Research Center in Ildong Pharmaceutical Co. Ltd. All procedures on animals were conducted in accordance with the relevant national regulatory guidelines and individual experiments approved by the Ildong Pharmaceutical Co. Ltd., Institutional Animal Care and Use Committee (IACUC) (approval No.: A2106-3, 2108-4).
The ability of test compounds to interfere with plasma coagulation, in the presence of platelets, was analyzing by measuring the recalcification time of rat plasma. The blood of animals was collected into 15 mL tubes containing Citrate-dextrose solution (9:1 v/v) before performing the assays. For recalcification time, platelet-rich plasma (PRP) samples were obtained by centrifugation at 360×g for 10 minutes. And the PRP were preincubated for 5 minutes (37° C.). In a 96 well microplate, test compounds (2 μL) were treated in 98 μL of platelet rich plasma. After mixing with a pipette, it was incubated at 37° C. for 15 minutes. The reaction was started by addition of 200 μL of pre-warmed CaCl2) (16 mM). Immediately, put the microplate in a microplate reader and the signals were measured by the following steps.
(1) 405 nm wavelength absorbance signals were recorded in every 10 seconds at 37° C.
(2) Basal absorbance signals were recorded for 0 second.
The signal variance of each of the test compounds was obtained by the following step.
(1) Background signals (t=O) were subtracted from recording values, and the resulting values were converted to change values. The values at 0 second were set to be zero.
The retardation time of test compound were calculated by the following formula:
Retardation time (sec)=[log EC50 (test sample)−log EC50 (DMSO control)]
As described above, a DMSO control group is a group to which 2% DMSO was treated.
The assay result is shown in Table 5, where compounds (30 μM) having less than 20 seconds of retardation time are marked by ‘C’; the compounds (30 μM) having retardation time of 20 seconds or more to less than 50 seconds are marked by ‘B’; and the compounds (30 μM) having retardation time of 50 seconds or more are marked by ‘A’.

O=C(N[C@@H]1C[C@H]1c1ccccc1)c1cccc(Nc2ccc(-c3ccccn3)cc2)c1 [Compound 155, N-((1R,2S)-2-phenylcyclopropyl)-3-((4-(pyridin-2-yl)phenyl)amino)benzamide]
A10, amplitude (firmness) at 10 minutes (citrated human blood): 45 mm
CFT, clot formation time (citrated human blood): 168 s
CT, clotting time (citrated human blood): 616 s
MCF, maximum clot firmness (citrated human blood): 57 mm
ML, maximum lysis (citrated human blood): 2%
α, α-angle (citrated human blood): 59 °
inhibition at 0.1 µM (human ANO6): ≥ 60%
inhibition at 1 µM (human ANO6): ≥ 60%
Inhibition Level (retardation time, recalcification time) [1]: A (the compounds (30 μM) having retardation time of 50 seconds or more)

O=C(Nc1cccc(F)c1)c1cccc(Nc2ncc(-c3ccoc3)cn2)c1 [Compound 176, N-(3-fluorophenyl)-3-((5-(furan-3-yl)pyrimidin-2-yl)amino)benzamide]
Inhibition Level (retardation time, recalcification time) [1]: C (compounds (30 μM) having less than 20 seconds of retardation time)

O=C(Nc1cccc(F)c1)c1cccc(Nc2ccc(-c3ccncn3)cc2)c1 [Compound 175, N-(3-fluorophenyl)-3-((4-(pyrimidin-4-yl)phenyl)amino)benzamide]
inhibition at 0.1 µM (human ANO6): ≥ 60%
Inhibition Level (retardation time, recalcification time) [1]: B (the compounds (30 μM) having retardation time of 20 seconds or more to less than 50 seconds)

O=C(Nc1cccc(F)c1)c1cccc(Nc2ccc(-c3cncnc3)cc2)c1 [Compound 164, N-(3-fluorophenyl)-3-((4-(pyrimidin-5-yl)phenyl)amino)benzamide]
inhibition at 0.1 µM (human ANO6): 30 to 60%
Inhibition Level (retardation time, recalcification time) [1]: C (compounds (30 μM) having less than 20 seconds of retardation time)

O=C(N[C@@H]1C[C@H]1c1ccccc1)c1cccc(Nc2ccc(-c3ncccn3)cc2)c1 [Compound 171, N-((1R,2S)-2-phenylcyclopropyl)-3-((4-(pyrimidin-2-yl)phenyl)amino)benzamide]
inhibition at 0.1 µM (human ANO6): < 30%
Inhibition Level (retardation time, recalcification time) [1]: C (compounds (30 μM) having less than 20 seconds of retardation time)

O=C(Nc1cccc([N+](=O)[O-])c1)c1cccc(Nc2ccc(-c3cccc(F)c3)cn2)c1 [Compound 141, 3-((5-(3-fluorophenyl)pyridin-2-yl)amino)-N-(3-nitrophenyl)benzamide]
inhibition at 0.1 µM (human ANO6): ≥ 60%
inhibition at 1 µM (human ANO6): ≥ 60%
Inhibition Level (retardation time, recalcification time) [1]: A (the compounds (30 μM) having retardation time of 50 seconds or more)

O=C(N[C@@H]1C[C@H]1c1ccccc1)c1cccc(Nc2ccc(-c3cnccn3)cc2)c1 [Compound 173, N-((1R,2S)-2-phenylcyclopropyl)-3-((4-(pyrazin-2-yl)phenyl)amino)benzamide]
inhibition at 0.1 µM (human ANO6): < 30%
Inhibition Level (retardation time, recalcification time) [1]: B (the compounds (30 μM) having retardation time of 20 seconds or more to less than 50 seconds)

O=C(Nc1cccc(F)c1)c1cccc(Nc2ccc(-c3cccnc3)cc2)c1 [Compound 160, N-(3-fluorophenyl)-3-((4-(pyridin-3-yl)phenyl)amino)benzamide]
inhibition at 0.1 µM (human ANO6): ≥ 60%
inhibition at 1 µM (human ANO6): ≥ 60%
Inhibition Level (retardation time, recalcification time) [1]: B (the compounds (30 μM) having retardation time of 20 seconds or more to less than 50 seconds)

O=C(N[C@@H]1C[C@H]1c1ccccc1)c1cccc(Nc2ccc(-c3cncnc3)cc2)c1 [Compound 165, N-((1R,2S)-2-phenylcyclopropyl)-3-((4-(pyrimidin-5-yl)phenyl)amino)benzamide]
inhibition at 0.1 µM (human ANO6): < 30%
Inhibition Level (retardation time, recalcification time) [1]: C (compounds (30 μM) having less than 20 seconds of retardation time)

O=C(Nc1cccc(F)c1)c1cccc(Nc2ccc(-c3ccccc3)cn2)c1 [Compound 128, N-(3-fluorophenyl)-3-((5-phenylpyridin-2-yl)amino)benzamide]
inhibition at 0.1 µM (human ANO6): ≥ 60%
inhibition at 1 µM (human ANO6): ≥ 60%
Inhibition Level (retardation time, recalcification time) [1]: A (the compounds (30 μM) having retardation time of 50 seconds or more)

O=C(Nc1cccc(F)c1)c1cccc(Nc2ccc(-c3ccccn3)cc2)c1 [Compound 154, N-(3-fluorophenyl)-3-((4-(pyridin-2-yl)phenyl)amino)benzamide]
inhibition at 0.1 µM (human ANO6): ≥ 60%
inhibition at 1 µM (human ANO6): ≥ 60%
Inhibition Level (retardation time, recalcification time) [1]: A (the compounds (30 μM) having retardation time of 50 seconds or more)

O=C(N[C@@H]1C[C@H]1c1ccccc1)c1cccc(Nc2ccc(-c3cccnc3)cc2)c1 [Compound 161, N-((1R,2S)-2-phenylcyclopropyl)-3-((4-(pyridin-3-yl)phenyl)amino)benzamide]
inhibition at 0.1 µM (human ANO6): ≥ 60%
inhibition at 1 µM (human ANO6): ≥ 60%
Inhibition Level (retardation time, recalcification time) [1]: A (the compounds (30 μM) having retardation time of 50 seconds or more)

O=C(Nc1cccc(F)c1)c1cccc(Nc2ccc(-c3cnccn3)cc2)c1 [Compound 172, N-(3-fluorophenyl)-3-((4-(pyrazin-2-yl)phenyl)amino)benzamide]
inhibition at 0.1 µM (human ANO6): ≥ 60%
Inhibition Level (retardation time, recalcification time) [1]: C (compounds (30 μM) having less than 20 seconds of retardation time)

O=C(NCCC12CC3CC(CC(C3)C1)C2)c1cccc(Nc2ccc(-c3cccc(F)c3)cn2)c1 [Compound 142, N-(2-(adamantan-1-yl)ethyl)-3-((5-(3-fluorophenyl)pyridin-2-yl)amino)benzamide]
inhibition at 0.1 µM (human ANO6): ≥ 60%
inhibition at 1 µM (human ANO6): ≥ 60%
Inhibition Level (retardation time, recalcification time) [1]: A (the compounds (30 μM) having retardation time of 50 seconds or more)

O=C(Nc1cccc(F)c1)c1cccc(Nc2ccc(-c3ncccn3)cc2)c1 [Compound 170, N-(3-fluorophenyl)-3-((4-(pyrimidin-2-yl)phenyl)amino)benzamide]
inhibition at 0.1 µM (human ANO6): 30 to 60%
Inhibition Level (retardation time, recalcification time) [1]: B (the compounds (30 μM) having retardation time of 20 seconds or more to less than 50 seconds)
